{"source": "patent US20230002344A1", "about": "“NOVEL BENZOTHIOPHENE DERIVATIVES AND USE THEREOF FOR STIMULATING MITOCHONDRIAL TURNOVER” (NIBN, The National Institute For Biotechnology In The Negev …, priority 2019, published 2023)", "key": {"[1]": {"system": "INS1 cells", "test": "Lipotoxicity (palmitate) protection and recovery", "type": "cell-based", "description": "In FIGS. 4A and 4B: INS1 cells were treated with either DMSO (control), SPB08007 (25 μM), or MWP00839 (25 μM) for 18 hours and were subjected to an Oxygen consumption rate (OCR) test. Viability test (using XTT staining) was determined after 24 hours exposure. […] In FIG. 4C: INS1 cells were treated with 400 μM palmitate (1:5 BSA palmitate) for 24 hours and were then let to recover in presence or absence of SPB08007 (“SBP”) for 18 hours. n=4 (paired t-test).\nTo address the potential beneficiary effect of mitochondrial clearance by SPB08007 (compound of structural Formula 6), we employed lipotoxicity, a model that we have previously reported to impair autophagy and mitochondrial clearance by alkalization of the lysosomes (Las, G., et al., Fatty acids suppress autophagic turnover in beta-cells. J Biol Chem, 2011.286 (49): p. 42534-44)."}, "[2]": {"system": "INS1 cells", "test": "Anion radical superoxide (Mitosox)", "type": "cell-based", "conditions": "25 uM", "description": "INS1 cells were treated for 24 h with SPB08007 (25 uM) or DMSO (0.1%). Mitochondrial membrane potential was analyzed cell by cell through TMRE staining corrected by Mitotracker Green (MTG). Cells were imaged using a 100× Plan Neofluar objective and the Airyscan module of a Zeiss LSM880 confocal microscope. […] Each experiment was repeated 2 times, 59-85 cells of each group were analyzed in each experiment for TMRE/MTG, and 48 fields were analyzed in each experiment for Mitosox analysis. *p<0.05 vs. DMSO; ***p<0.05 vs. DMSO and SPB08007.\nMitotracker Green Fluorescence, Anion Radical Superoxide and Mitochondrial Membrane Potential. INS1 cells were seeded into wells of a 96-wells glass bottom cell culture plate (CELLSTAR) at a density of 2*10^4 cells/well. To assess mitochondrial clearance, a pulse-chase experiment was performed. Briefly, cells were stained with MTG (Molecular Probes) 500 nM for 30 min, washed, and treated with (25 uM) or DMSO 0.1%. After 18 h, cells were imaged using a 40× lens of a Perkin Elmer Operetta high-content imaging system microscope. Results are expressed as the percentage of MTG fluorescence relative to MTG fluorescence of the “time 0” control. […] Integrated fluorescence of each field was analyzed in Image J after background subtraction and threshold (IsoData) application. Twenty-four fields of each condition were analyzed in each experiment."}, "[3]": {"system": "INS1 cells", "test": "Mitochondrial mass by Mitotracker green staining", "type": "cell-based", "conditions": "18 h; SPB08007 25 μM, MWP00839 11.5 μM, Urolithin A 25 μM", "description": "The Z-score depicts the standard deviation from the neutral control (DMSO). In FIG. 3C: Mitochondrial mass in INS1 cells treated for 18 hours with either DMSO (control), Urolithin A (25 μM), SPB08007 (“SBP”) (25 μM) or MWP00839 (“MWP”) (11.5 μM) and then stained with Mitotracker green (200 nM). In FIG. 3D: SPB08007 and MWP00839 increase the number of mitochondria inside autolysosomes. INS1 cells expressing mCherry-GFP were exposed to SPB08007, MWP00839, and DMSO for 8 hours and then subjected to confocal microscopy. The area of red fluorescence in the taken images was determined. N=3+/−SEM pANOVA<0.05. FIG. 3E provides representative images. […] FIG. 3F provides the Western blot against LC3 in INS1 cells treated with the compounds in presence or absence of bafilomycin (+b) for the last 2 hours.\nMitotracker Green Fluorescence, Anion Radical Superoxide and Mitochondrial Membrane Potential. INS1 cells were seeded into wells of a 96-wells glass bottom cell culture plate (CELLSTAR) at a density of 2*10^4 cells/well. To assess mitochondrial clearance, a pulse-chase experiment was performed. […] Results are expressed as the percentage of MTG fluorescence relative to MTG fluorescence of the “time 0” control. […] Integrated fluorescence of each field was analyzed in Image J after background subtraction and threshold (IsoData) application. Twenty-four fields of each condition were analyzed in each experiment."}, "[4]": {"system": "INS1 cells", "test": "Mitotracker Green pulse-chase (mitochondrial clearance)", "type": "cell-based", "conditions": "25 uM, 18 h after MTG pulse", "description": "FIGS. 8A-E show the effect of two hit compounds on mitophagy confirmed by other methods. […] Cells were imaged using a 63× Plan Neofluar objective and the Airyscan module of a Zeiss LSM880 confocal microscope. […] Data are normalized by DMSO. […] After 18 h, cells were imaged. As control, cells were loaded with MTG 30 min prior imaging—time “0” (100% MTG staining). Cells were imaged using a 40× lens of a Perkin Elmer Operetta high-content imaging system microscope (FIG. 8D). […] Each experiment was repeated three times. For mCherry-GFP-FIS1101-152 assay, 59-85 cells of each group were analyzed in each experiment and for MTG pulse-chase assay, 45 fields were analyzed in each experiment. Values of *p<0.05 vs. DMSO, #p<0.05 vs. “time 0”.\nMitotracker Green Fluorescence, Anion Radical Superoxide and Mitochondrial Membrane Potential. […] Results are expressed as the percentage of MTG fluorescence relative to MTG fluorescence of the “time 0” control. […] Integrated fluorescence of each field was analyzed in Image J after background subtraction and threshold (IsoData) application. Twenty-four fields of each condition were analyzed in each experiment.\nA second fluorescence technique, Mitotracker Green (MTG) “pulse-and-chase” (FIG. 8 C-E), was utilized to confirm faster mitochondrial clearance upon treatment with SPB08007 and MWP00839. […]"}, "[5]": {"system": "INS1 cells", "protocol": "Cellular oxygen consumption. An hour before oxygen consumption measurements, cell media was replaced by assay media (2 mM glucose, 0.8 mM Mg 2+, 1.8 mM Ca 2+, 143 mM NaCl, 5.4 mM KCl, 0.91 mM, NaH 2 PO 4 , and 15 mg/mL Phenol red) for 120 min at 37° C. (no CO2) before loading into the Seahorse Bioscience XF24 extracellular analyzer. The ports of the cartridge containing the oxygen probes were loaded with the compounds to be injected during the assay (50 μL/port) and the cartridge was calibrated.\nBasal respiration was recorded for 30 min, at approximately 5 min intervals until system stabilization. Glucose was injected at a final concentration of 12 mM and glucose stimulated respiration was recorded for approximately 15 min. FCCP (Carbonyl cyanide-4-phenylhydrazone) was used at final concentration of 4 μM and injected with sodium pyruvate (Sigma) at a final concentration of 5 mM. Oligomycin and antimycin were used at final concentrations of 2 and 4 μM, respectively. All respiratory modulators were used at ideal concentrations titrated during preliminary experiments (not shown) and oxygen consumption rates were recorded for up to 15 min due the toxicity of these compounds. […] All the OCR values were subtracted from the lowest antimycin OCR."}}}
{"smiles": "CC(=O)N/C(=C\\c1sc2ccccc2c1C)C(=O)O", "note": "[SPB08007]", "values": [{"measurement": "recovery after palmitate", "setting": "[1]; 400 μM palmitate 24 hours, then 18 hours recovery with compound", "result": "slight but significant increase in recovery"}, {"measurement": "protection from palmitate, co-treatment", "setting": "[1]; co-treatment with palmitate for 18 hours", "result": "did not show any protection"}, {"measurement": "anion radical superoxide formation (Mitosox)", "setting": "[2]", "result": "unaffected"}, {"measurement": "mitochondrial mass (mitotracker green fluorescence)", "setting": "[3]", "result": "reduction in fluorescence"}, {"measurement": "MTG intensity after pulse-chase", "setting": "[4]", "result": "lower MTG intensity compared to DMSO"}, {"measurement": "OCR under oligomycin", "setting": "[5]; 25 μM, 18 hours exposure", "result": "decreased as well"}, {"measurement": "basal oxygen consumption rate (OCR)", "setting": "[5]; 25 μM, 18 hours exposure", "result": "decreased"}, {"measurement": "maximal OCR (under FCCP induction)", "setting": "[5]; 25 μM, 18 hours exposure", "result": "decreased"}, {"measurement": "ATP-linked oxygen consumption", "setting": "[5]; 25 uM, 48 h", "result": "higher"}, {"measurement": "glucose-stimulated mtOCR", "setting": "[5]; 25 uM, 48 h", "result": "increased"}, {"measurement": "mitochondrial coupling (oligomycin-sensitive respiration)", "setting": "[5]; 25 uM, 48 h", "result": "conserving"}, {"measurement": "spare respiratory capacity relative to basal respiration", "setting": "[5]; 25 uM, 48 h", "result": "unchanged"}, {"measurement": "basal mitochondrial oxygen consumption rate (mtOCR)", "setting": "[5]; 25 uM, 48 h, 2 mM glucose", "result": "increased"}, {"measurement": "maximum mtOCR", "setting": "[5]; 25 uM, 48 h, after FCCP", "result": "increased"}]}
